# Reference: patent US9102752B2, “Peptide vaccine for prevention and immunotherapy of dementia of the Alzheimer's type” (United Biomedical, Inc., priority 2013, dated 2015)
# Legend:
# [1] = tested on: anti-Aβ antibodies in macaque antisera; experiment: Specificity analysis (10-mer peptide ELISA) of antisera from Cynomolgus macaques; format: binding
# [2] = tested on: anti-Aβ antibodies in sera of vaccinated patients; experiment: Epitope mapping, competitive binding inhibition EIA with patient sera (10-mer peptides, IC50); parameters: species or system human; Epitope mapping, fine specificity analysis, serum of subject P210: unit not given here; details: for Epitope mapping, fine specificity analysis, serum of subject P101: serum 16 wpi of vaccinated patient P101; for Epitope mapping, fine specificity analysis, serum of subject P102: serum 16 wpi of vaccinated patient P102; for Epitope mapping, fine specificity analysis, serum of subject P103: serum 16 wpi of vaccinated patient P103; for Epitope mapping, fine specificity analysis, serum of subject P104: serum 16 wpi of vaccinated patient P104; for Epitope mapping, fine specificity analysis, serum of subject P105: serum 16 wpi of vaccinated patient P105; for Epitope mapping, fine specificity analysis, serum of subject P106: serum 16 wpi of vaccinated patient P106; for Epitope mapping, fine specificity analysis, serum of subject P107: serum 16 wpi of vaccinated patient P107; for Epitope mapping, fine specificity analysis, serum of subject P108: serum 16 wpi of vaccinated patient P108; for Epitope mapping, fine specificity analysis, serum of subject P109: serum 16 wpi of vaccinated patient P109; for Epitope mapping, fine specificity analysis, serum of subject P201: serum 16 wpi of vaccinated patient P201; for Epitope mapping, fine specificity analysis, serum of subject P202: serum 16 wpi of vaccinated patient P202; for Epitope mapping, fine specificity analysis, serum of subject P203: serum 16 wpi of vaccinated patient P203; for Epitope mapping, fine specificity analysis, serum of subject P204: serum 16 wpi of vaccinated patient P204; for Epitope mapping, fine specificity analysis, serum of subject P205: serum 16 wpi of vaccinated patient P205; for Epitope mapping, fine specificity analysis, serum of subject P206: serum 16 wpi of vaccinated patient P206; for Epitope mapping, fine specificity analysis, serum of subject P207: serum 16 wpi of vaccinated patient P207; for Epitope mapping, fine specificity analysis, serum of subject P208: serum 16 wpi of vaccinated patient P208; for Epitope mapping, fine specificity analysis, serum of subject P209: serum 16 wpi of vaccinated patient P209; for Epitope mapping, fine specificity analysis, serum of subject P210: serum 16 wpi of vaccinated patient P210
# [3] = antisera of macaques given UBI AD Vaccine 150 μg/dose, 9 WPI
# [4] = antisera of macaques given UBI AD Vaccine 150 μg/dose, 15 WPI
# [5] = antisera of macaques given UBI AD Vaccine 750 μg/dose, 9 WPI
# [6] = antisera of macaques given UBI AD Vaccine 750 μg/dose, 15 WPI
Substance,"Reactivity of antisera with peptide (specificity analysis ELISA) [1, 3]","Reactivity of antisera with peptide (specificity analysis ELISA) [1, 4]","Reactivity of antisera with peptide (specificity analysis ELISA) [1, 5]","Reactivity of antisera with peptide (specificity analysis ELISA) [1, 6]","Epitope mapping, fine specificity analysis, serum of subject P101 [2]","Epitope mapping, fine specificity analysis, serum of subject P102 [2]","Epitope mapping, fine specificity analysis, serum of subject P103 [2]","Epitope mapping, fine specificity analysis, serum of subject P104 [2]","Epitope mapping, fine specificity analysis, serum of subject P105 [2]","Epitope mapping, fine specificity analysis, serum of subject P106 [2]","Epitope mapping, fine specificity analysis, serum of subject P107 [2]","Epitope mapping, fine specificity analysis, serum of subject P108 [2]","Epitope mapping, fine specificity analysis, serum of subject P109 [2]","Epitope mapping, fine specificity analysis, serum of subject P201 [2]","Epitope mapping, fine specificity analysis, serum of subject P202 [2]","Epitope mapping, fine specificity analysis, serum of subject P203 [2]","Epitope mapping, fine specificity analysis, serum of subject P204 [2]","Epitope mapping, fine specificity analysis, serum of subject P205 [2]","Epitope mapping, fine specificity analysis, serum of subject P206 [2]","Epitope mapping, fine specificity analysis, serum of subject P207 [2]",other results
8 (TEEISEVKMD; PEPTIDE (1)..(10) Abeta -9-1 or APP 770(T663-D672); listed as Homo sapiens) [compound 8],0.075,0.084,0.061,0.078,0,0,0,0,0,0,0,0,0,0,0,0,0,0,0,0,"Epitope mapping, fine specificity analysis, serum of subject P208 [2]: 0; Epitope mapping, fine specificity analysis, serum of subject P209 [2]: 0; Epitope mapping, fine specificity analysis, serum of subject P210 [2]: 0"
19 (FRHDSGYEVH; PEPTIDE (1)..(10) Abeta 4-13 or APP 770(F675-H684); listed as Homo sapiens) [compound 19],0.085,0.076,0.066,0.096,0,0,0,0,0,0,0,0,0,0,0,0,0,0,0,0,"Epitope mapping, fine specificity analysis, serum of subject P208 [2]: 0; Epitope mapping, fine specificity analysis, serum of subject P209 [2]: 0; Epitope mapping, fine specificity analysis, serum of subject P210 [2]: 0"
